# ChEMBL document CHEMBL1121424, “Orally active cephalosporins and penicillins” (J Med Chem, 1980)
# Columns and labels:
# Assay type in all cases: functional
# Enterococcus faecalis = assay: Tested for inhibition of visible growth of Streptococcus faecalis
# Klebsiella aerogenes = assay: Tested for inhibition of visible growth of Enterobacter aerogenes
# Proteus mirabilis = assay: Tested for inhibition of visible growth of Proteus mirabilis
# Staphylococcus aureus [1] = assay: Tested for inhibition of visible growth of Staphylococcus aureus
# Streptococcus pyogenes = assay: Tested for inhibition of visible growth of Streptococcus pyogenes
# Staphylococcus aureus [2] = assay: Tested for inhibition of visible growth of Staphylococcus aureus, benzyl-penicillin sensitive
# Streptococcus pneumoniae = assay: Tested for inhibition of visible growth of Streptococcus pneumoniae
# Escherichia coli = assay: Tested for inhibition of visible growth of Escherichia coli
# Klebsiella pneumoniae = assay: Tested for inhibition of visible growth of Klebsiella pneumoniae
# Enterobacter cloacae = assay: Tested for inhibition of visible growth of Enterobacter cloacae
# [3] = Tested for inhibition of visible growth of Salmonella schottmuelleri
MIC (Enterococcus faecalis),MIC (Klebsiella aerogenes),MIC (Proteus mirabilis),MIC (Staphylococcus aureus [1]),MIC (Streptococcus pyogenes),MIC (Staphylococcus aureus [2]),MIC (Streptococcus pneumoniae),MIC (Escherichia coli),MIC (Klebsiella pneumoniae),MIC (Enterobacter cloacae),MIC [3],Structure (SMILES)
> 100 µg/mL,–,> 50 µg/mL,–,1.6 µg/mL,6.2 µg/mL,–,> 50 µg/mL,> 50 µg/mL,–,50 µg/mL,N[C@H](C(=O)NC1C(=O)N2C(C(=O)O)=C(CSc3c[nH]nn3)CSC12)c1ccc2c(c1)OCO2 (stereo partly specified)
> 100 µg/mL,–,> 100 µg/mL,–,12.5 µg/mL,25 µg/mL,50 µg/mL,> 100 µg/mL,> 100 µg/mL,–,> 100 µg/mL,CC1=C(C(=O)O)N2C(=O)C(NC(=O)[C@@H](N)c3ccc4c(c3)OCO4)C2SC1 (stereo partly specified)
> 200 µg/mL,> 200 µg/mL,> 200 µg/mL,6.2 µg/mL,0.8 µg/mL,0.8 µg/mL,1.6 µg/mL,200 µg/mL,200 µg/mL,> 200 µg/mL,100 µg/mL,CC1=C(C(=O)O)N2C(=O)C(NC(=O)C(N)c3ccc4c(c3)OCCO4)C2SC1 (mixture of isomers)
200 µg/mL,> 200 µg/mL,100 µg/mL,3.1 µg/mL,0.2 µg/mL,3.1 µg/mL,0.2 µg/mL,100 µg/mL,50 µg/mL,> 200 µg/mL,25 µg/mL,CC(=O)OCC1=C(C(=O)O)N2C(=O)C(NC(=O)C(N)c3cccc4c3OCO4)C2SC1 (racemic)
200 µg/mL,> 200 µg/mL,100 µg/mL,6.2 µg/mL,0.2 µg/mL,3.1 µg/mL,0.4 µg/mL,50 µg/mL,25 µg/mL,> 200 µg/mL,12.5 µg/mL,CC(=O)OCC1=C(C(=O)O)N2C(=O)C(NC(=O)C(N)c3ccc4c(c3)OCO4)C2SC1 (racemic)

# The next lines start with the compound.
Structure (SMILES),MIC (Enterococcus faecalis),MIC (Klebsiella aerogenes),MIC (Proteus mirabilis),MIC (Staphylococcus aureus [1]),MIC (Streptococcus pyogenes),MIC (Staphylococcus aureus [2]),MIC (Streptococcus pneumoniae),MIC (Escherichia coli),MIC (Klebsiella pneumoniae),MIC (Enterobacter cloacae),MIC [3]
CC1=C(C(=O)O)N2C(=O)C(NC(=O)C(N)c3cccc4c3OCO4)C2SC1 (stereo unspecified),> 200 µg/mL,> 200 µg/mL,> 200 µg/mL,6.2 µg/mL,0.4 µg/mL,3.1 µg/mL,6.2 µg/mL,> 200 µg/mL,> 200 µg/mL,> 200 µg/mL,100 µg/mL
Cc1nnc(SCC2=C(C(=O)O)N3C(=O)C(NC(=O)[C@@H](N)c4ccc5c(c4)OCO5)C3SC2)s1 (stereo partly specified),> 100 µg/mL,–,> 100 µg/mL,–,0.8 µg/mL,6.2 µg/mL,0.8 µg/mL,> 100 µg/mL,> 100 µg/mL,–,50 µg/mL
CC(=O)OCC1=C(C(=O)O)N2C(=O)C(NC(=O)[C@H](N)c3ccc4c(c3)CCO4)C2SC1 (stereo partly specified),50 µg/mL,100 µg/mL,50 µg/mL,3.1 µg/mL,0.1 µg/mL,0.8 µg/mL,0.1 µg/mL,25 µg/mL,6.2 µg/mL,100 µg/mL,3.1 µg/mL
CC1=C(C(=O)O)N2C(=O)C(NC(=O)C(N)c3ccc4c(c3)CCO4)C2SC1 (racemic),> 200 µg/mL,> 200 µg/mL,> 200 µg/mL,3.1 µg/mL,0.4 µg/mL,1.6 µg/mL,3.1 µg/mL,100 µg/mL,50 µg/mL,> 200 µg/mL,50 µg/mL
CC(=O)OCC1=C(C(=O)O)N2C(=O)C(NC(=O)C(O)c3ccc4c(c3)OCO4)C2SC1 (racemic),> 200 µg/mL,> 200 µg/mL,50 µg/mL,3.1 µg/mL,0.1 µg/mL,0.8 µg/mL,0.1 µg/mL,25 µg/mL,25 µg/mL,> 200 µg/mL,6.2 µg/mL
CC(=O)OCC1=C(C(=O)O)N2C(=O)C(NC(=O)C(O)c3ccc4c(c3)CCO4)C2SC1 (racemic),> 200 µg/mL,> 200 µg/mL,50 µg/mL,3.1 µg/mL,0.1 µg/mL,0.8 µg/mL,0.1 µg/mL,50 µg/mL,50 µg/mL,> 200 µg/mL,12.5 µg/mL
